# In US9302999B2, “Substituted triazoles as herbicides” (E. I. DU PONT DE NEMOURS AND COMPANY, priority 2012, dated 2016):
# Key:
# Type in all cases: in vivo
# [1] = test system: Russian thistle (Salsola kali); test: Test C pre-/postemergence: Russian thistle; details: Preemergence
# Summary of the method: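 Preemergence on seeds in loam/sand, postemergence on 2–18 cm (1–4-leaf) plants in peat-based medium; compounds in non-phytotoxic solvent with surfactant. After 13–15 days in greenhouse, visual rating versus controls, 0 (no effect) to 100 (complete control).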
# [2] = test system: wheat, spring (spring wheat, Triticum aestivum); test: Test D pre-/postemergence: wheat, spring
# Summary of the method: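 Pre- and postemergence herbicide screen. Soil for pre: silt loam; post medium: peat moss, vermiculite, wetting agent, starter nutrients. Plant stage at post: 1- to 4-leaf. Readout: visual % control, 14–21 days.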
# [3] = test system: nightshade (eastern black nightshade, Solanum ptycanthum); test: Test F pre-/postemergence: nightshade; details: Preemergence
# Summary of the method: (§1)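 Preemergence treatment of seeds sown in silt loam soil, and postemergence treatment of plants 2–18 cm tall (1- to 4-leaf stage), with compounds in non-phytotoxic solvent plus surfactant. Greenhouse 14–21 days, then visual rating versus controls on 0–100 scale (100 = complete control).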
# [4] = test system: sandbur (southern sandbur, Cenchrus echinatus); test: Test F pre-/postemergence: sandbur
# Summary of the method: as §1
# [5] = test system: field bindweed (Convolvulus arvensis); test: Test F pre-/postemergence: field bindweed
# Summary of the method: as §1
# [6] = Postemergence, 16 g ai/ha, scale 0 to 100
# [7] = Preemergence, 16 g ai/ha, scale 0 to 100, 0 no effect, 100 complete control
# [8] = Preemergence, 31 g ai/ha, scale 0 to 100, 0 no effect, 100 complete control
# [9] = Preemergence, 125 g ai/ha, scale 0 to 100
# [10] = Postemergence, 8 g ai/ha, scale 0 to 100
# [11] = Postemergence, 31 g ai/ha, scale 0 to 100
# [12] = Postemergence, 62 g ai/ha, scale 0 to 100
# [13] = Postemergence, 125 g ai/ha, scale 0 to 100
# [14] = Preemergence, 8 g ai/ha, scale 0 to 100, 0 no effect, 100 complete control
smiles,measurement,setting,value
"CCOc1nn(-c2ccc(F)cc2)nc1Cc1ccnc(C(F)(F)F)c1 [Compound 196, 4-[[5-ethoxy-2-(4-fluorophenyl)-2H-1,2,3-triazol-4-yl]methyl]-2-(trifluoromethyl)pyridine]","Plant response rating, Russian Thistle","[1]; 31 g ai/ha, scale 0 (no effect) to 100 (complete control)",90
same,"Plant response rating, Russian Thistle","[1]; 62 g ai/ha, scale 0 to 100, 0 no effect, 100 complete control",90
same,"Plant response rating, Russian Thistle","[1]; 125 g ai/ha, scale 0 to 100, 0 no effect, 100 complete control",90
same,"Plant response rating, Russian Thistle","[1]; 250 g ai/ha, scale 0 to 100, 0 no effect, 100 complete control",90
same,"Plant response rating: Wheat, Spring","[2]; Postemergence, 31 g ai/ha, scale 0 to 100 (0 no effect, 100 complete control)",25
same,"Plant response rating: Wheat, Spring","[2]; Postemergence, 62 g ai/ha, scale 0 to 100 (0 no effect, 100 complete control)",35
same,"Plant response rating: Wheat, Spring","[2]; Postemergence, 125 g ai/ha, scale 0 to 100, 0 no effect, 100 complete control",35
same,"Plant response rating, Wheat, Spring",[2]; [6],15
same,"Plant response rating, Wheat, Spring",[2]; [7],0
same,"Plant response rating, Wheat, Spring",[2]; [8],5
same,"Plant response rating, Wheat, Spring","[2]; Preemergence, 62 g ai/ha, scale 0 to 100",5
same,"Plant response rating, Wheat, Spring",[2]; [9],25
same,"Plant response rating, Nightshade","[3]; 8 g ai/ha, scale 0 to 100, 0 no effect, 100 complete control",95
same,"Plant response rating, Nightshade","[3]; 16 g ai/ha, scale 0 to 100, 0 no effect, 100 complete control",95
same,"Plant response rating, Nightshade","[3]; 31 g ai/ha, scale 0 to 100, 0 no effect, 100 complete control",95
same,"Plant response rating, Nightshade","[3]; 125 g ai/ha, scale 0 to 100",100
same,"Plant response rating, Sandbur",[4]; [10],10
same,"Plant response rating, Sandbur",[4]; [6],20
same,"Plant response rating, Sandbur",[4]; [11],20
same,"Plant response rating, Sandbur",[4]; [12],30
same,"Plant response rating, Sandbur",[4]; [13],50
same,"Plant response rating, Sandbur",[4]; [14],5
same,"Plant response rating, Sandbur",[4]; [7],5
same,"Plant response rating, Sandbur",[4]; [8],5
same,"Plant response rating, Sandbur",[4]; [9],98
same,"Plant response rating, Field Bindweed",[5]; [10],50
same,"Plant response rating, Field Bindweed",[5]; [6],60
same,"Plant response rating, Field Bindweed",[5]; [11],70
same,"Plant response rating, Field Bindweed",[5]; [12],75
same,"Plant response rating, Field Bindweed",[5]; [13],75
same,"Plant response rating, Field Bindweed",[5]; [14],0
same,"Plant response rating, Field Bindweed",[5]; [7],0
same,"Plant response rating, Field Bindweed",[5]; [8],25
same,"Plant response rating, Field Bindweed",[5]; [9],65
